Experimental data: patent publication US11999716B2, “WDR5 inhibitors and modulators” (priority 2018, dated 2024)

test system: MV4:11 human cancer cell lines; assay: Cellular viability / anti-proliferative activity, CellTiter-Glo, 5 day protocol; format: cell-based; settings: Homo sapiens, MV4-11, 120 h, MV4:11 cells; 5 day incubation; CellTiter-Glo; mean of minimum two replicates; read-out: GI50 on cellular proliferation of MV4:11 human cancer cell lines
Method in brief: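 Compounds were tested over 22 two-fold dilutions starting at 30 μM in 0.3% DMSO, with 200 cells per well (7200 cells/mL). Viability was measured by CellTiter-Glo luminescence at day 5.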

Row | SMILES | GI50 [nM]
1 | CCn1cc(CN2CCc3c(cc(Cn4ccnc4C)cc3-c3cn(C)nc3C(F)(F)F)C2=O)c2ccccc21 [Example 187, 2-((1-Ethyl-1H-indol-3-yl)methyl)-7-((2-methyl-1H-imidazol-1-yl)methyl)-5-(1-methyl-3-(trifluoromethyl)-1H-pyrazol-4-yl)-3,4-dihydroisoquinolin-1(2H)-one] | 591
2 | Cc1cc(CN2CCc3c(cc(Cn4ccnc4C)cc3-c3cn(C)nc3C(F)(F)F)C2=O)cnc1C [Example 241, 2-((5,6-Dimethylpyridin-3-yl)methyl)-7-((2-methyl-1H-imidazol-1-yl)methyl)-5-(1-methyl-3-(trifluoromethyl)-1H-pyrazol-4-yl)-3,4-dihydroisoquinolin-1(2H)-one] | < 50
3 | Cc1nccn1Cc1cc2c(c(-c3cn(C)nc3C(F)(F)F)c1)CCN(CC1CCOCC1)C2=O [Example 173, 7-((2-Methyl-1H-imidazol-1-yl)methyl)-5-(1-methyl-3-(trifluoromethyl)-1H-pyrazol-4-yl)-2-((tetrahydro-2H-pyran-4-yl)methyl)-3,4-dihydroisoquinolin-1(2H)-one] | 3910
4 | Cc1cccc(CN2CCc3c(cc(Cn4ccnc4C)cc3-c3cn(C)nc3C(F)(F)F)C2=O)c1 [Example 209, 7-((2-Methyl-1H-imidazol-1-yl)methyl)-5-(1-methyl-3-(trifluoromethyl)-1H-pyrazol-4-yl)-2-(3-methylbenzyl)-3,4-dihydroisoquinolin-1(2H)-one] | 85
5 | Cc1nccn1Cc1cc2c(c(-c3cn(C)nc3C(F)(F)F)c1)CCN(Cc1cccc(C3CC3)c1)C2=O [Example 234, 2-(3-Cyclopropylbenzyl)-7-((2-methyl-1H-imidazol-1-yl)methyl)-5-(1-methyl-3-(trifluoromethyl)-1H-pyrazol-4-yl)-3,4-dihydroisoquinolin-1(2H)-one] | 283
6 | COc1ccnc(CN2CCc3c(cc(CNC4=NCCO4)cc3-c3cn(C)nc3C)C2=O)c1 [Example 134, 7-(((4,5-Dihydrooxazol-2-yl)amino)methyl)-5-(1,3-dimethyl-1H-pyrazol-4-yl)-2-((4-methoxypyridin-2-yl)methyl)-3,4-dihydroisoquinolin-1(2H)-one] | > 938
7 | CCn1cc(-c2cc(Cn3ccnc3C)cc3c2CCN([C@H](c2cc(OC)ccn2)C2CC2)C3=O)c(C(F)(F)F)n1 [Example 206, (S)-2-(cyclopropyl(4-methoxypyridin-2-yl)methyl)-5-(1-ethyl-3-(trifluoromethyl)-1H-pyrazol-4-yl)-7-((2-methyl-1H-imidazol-1-yl)methyl)-3,4-dihydroisoquinolin-1(2H)-one] | < 50
8 | CCn1cc(-c2cc(Cn3ccn(C(F)F)c3=N)cc3c2CCN([C@@H](C)c2cc(OC)ccn2)C3=O)c(C(F)(F)F)n1 [Example 67, (S)-7-((3-(Difluoromethyl)-2-imino-2,3-dihydro-1H-imidazol-1-yl)methyl)-5-(1-ethyl-3-(trifluoromethyl)-1H-pyrazol-4-yl)-2-(1-(4-methoxypyridin-2-yl)ethyl)-3,4-dihydroisoquinolin-1(2H)-one] | < 50
9 | CCc1ccnc([C@H](C)N2CCc3c(cc(Cn4ccnc4C)cc3-c3cn(C)nc3C(F)(F)F)C2=O)c1 [Example 175, (S)-2-(1-(4-Ethylpyridin-2-yl)ethyl)-7-((2-methyl-1H-imidazol-1-yl)methyl)-5-(1-methyl-3-(trifluoromethyl)-1H-pyrazol-4-yl)-3,4-dihydroisoquinolin-1(2H)-one] | < 50
10 | CCn1cc(-c2cc(Cn3ccn(C4CC4)c3=N)cc3c2CCN(Cc2cc(OC)ccn2)C3=O)c(C(F)(F)F)n1 [Example 58, 7-((3-Cyclopropyl-2-imino-2,3-dihydro-1H-imidazol-1-yl)methyl)-5-(1-ethyl-3-(trifluoromethyl)-1H-pyrazol-4-yl)-2-((4-methoxypyridin-2-yl)methyl)-3,4-dihydroisoquinolin-1(2H)-one] | 54
11 | Cc1nccn1Cc1cc2c(c(-c3cn(C)nc3C(F)(F)F)c1)CCN(c1ccc(F)cc1OCC1CC1)C2=O [Example 253, 2-(2-(Cyclopropylmethoxy)-4-fluorophenyl)-7-((2-methyl-1H-imidazol-1-yl)methyl)-5-(1-methyl-3-(trifluoromethyl)-1H-pyrazol-4-yl)-3,4-dihydroisoquinolin-1(2H)-one] | 2090
12 | CCc1ccnc(CN2CCc3c(cc(Cn4cnn(C)c4=N)cc3-c3cn(CC)nc3C(F)(F)F)C2=O)c1 [Example 129, 5-(1-Ethyl-3-(trifluoromethyl)-1H-pyrazol-4-yl)-2-((4-ethylpyridin-2-yl)methyl)-7-((5-imino-1-methyl-1,5-dihydro-4H-1,2,4-triazol-4-yl)methyl)-3,4-dihydroisoquinolin-1(2H)-one] | < 50
13 | Cc1nccn1Cc1cc2c(c(-c3cn(C)nc3C(F)(F)F)c1)CCN(Cc1ccc3ccccc3n1)C2=O [Example 176, 7-((2-Methyl-1H-imidazol-1-yl)methyl)-5-(1-methyl-3-(trifluoromethyl)-1H-pyrazol-4-yl)-2-(quinolin-2-ylmethyl)-3,4-dihydroisoquinolin-1(2H)-one] | 293
14 | CC[C@@H](c1cncc(C)c1)N1CCc2c(cc(Cn3ccnc3C)cc2-c2cn(C)nc2C(F)(F)F)C1=O [Example 199, (S)-7-((2-Methyl-1H-imidazol-1-yl)methyl)-5-(1-methyl-3-(trifluoromethyl)-1H-pyrazol-4-yl)-2-(1-(5-methylpyridin-3-yl)propyl)-3,4-dihydroisoquinolin-1(2H)-one] | < 50
15 | CCn1cc(-c2cc(Cn3cnn(C)c3=N)cc3c2CCN([C@@H](C)c2cc(OC)ccn2)C3=O)c(C(F)(F)F)n1 [Example 152, (S)-5-(1-ethyl-3-(trifluoromethyl)-1H-pyrazol-4-yl)-7-((5-imino-1-methyl-1,5-dihydro-4H-1,2,4-triazol-4-yl)methyl)-2-(1-(4-methoxypyridin-2-yl)ethyl)-3,4-dihydroisoquinolin-1(2H)-one] | < 50
16 | Cc1cnc(CN2CCc3c(cc(Cn4ccnc4C)cc3-c3cn(C)nc3C(F)(F)F)C2=O)o1 [Example 194, 7-((2-Methyl-1H-imidazol-1-yl)methyl)-5-(1-methyl-3-(trifluoromethyl)-1H-pyrazol-4-yl)-2-((5-methyloxazol-2-yl)methyl)-3,4-dihydroisoquinolin-1(2H)-one] | 252
17 | COc1cc(CN2CCc3c(cc(Cn4ccn(C)c4=N)cc3-c3nc(C)cn3C)C2=O)cc(OC)c1 [Example 153, 2-(3,5-Dimethoxybenzyl)-5-(1,4-dimethyl-1H-imidazol-2-yl)-7-((2-imino-3-methyl-2,3-dihydro-1H-imidazol-1-yl)methyl)-3,4-dihydroisoquinolin-1(2H)-one] | > 938
18 | COc1cc(CN2CCc3c(cc(Cn4ccccc4=N)cc3-c3ccc(F)cc3C)C2=O)cc(OC)c1 [Example 116, 2-(3,5-Dimethoxybenzyl)-5-(4-fluoro-2-methylphenyl)-7-((2-iminopyridin-1(2H)-yl)methyl)-3,4-dihydroisoquinolin-1(2H)-one] | 268
19 | COc1cc(CN2CCc3c(cc(Cn4ccnc4C)cc3-c3cn(C)nc3C(F)(F)F)C2=O)cc(OC)c1 [Example 10, 2-(3,5-Dimethoxybenzyl)-7-((2-methyl-1H-imidazol-1-yl)methyl)-5-(1-methyl-3-(trifluoromethyl)-1H-pyrazol-4-yl)-3,4-dihydroisoquinolin-1(2H)-one] | < 50
20 | Cc1cnnc(CN2CCc3c(cc(Cn4ccnc4C)cc3-c3cn(C)nc3C(F)(F)F)C2=O)c1 [Example 232, 7-((2-Methyl-1H-imidazol-1-yl)methyl)-5-(1-methyl-3-(trifluoromethyl)-1H-pyrazol-4-yl)-2-((5-methylpyridazin-3-yl)methyl)-3,4-dihydroisoquinolin-1(2H)-one] | 199
21 | Cc1cc(CN2CCc3c(cc(Cn4ccnc4C)cc3-c3cn(C)nc3C(F)(F)F)C2=O)on1 [Example 190, 7-((2-Methyl-1H-imidazol-1-yl)methyl)-5-(1-methyl-3-(trifluoromethyl)-1H-pyrazol-4-yl)-2-((3-methylisoxazol-5-yl)methyl)-3,4-dihydroisoquinolin-1(2H)-one] | 349
22 | COc1ccnc(CN2CCc3c(cc(CN4CCN(C)C4=N)cc3-c3cn(C)nc3C(F)(F)F)C2=O)c1 [Example 43, 7-((2-Imino-3-methylimidazolidin-1-yl)methyl)-2-((4-methoxypyridin-2-yl)methyl)-5-(1-methyl-3-(trifluoromethyl)-1H-pyrazol-4-yl)-3,4-dihydroisoquinolin-1(2H)-one] | < 50
23 | COc1ccnc(CN2CCc3c(cc(Cn4ccn(C5CC5)c4=N)cc3-c3cn(C)nc3C(F)(F)F)C2=O)c1 [Example 45, 7-((3-Cyclopropyl-2-imino-2,3-dihydro-1H-imidazol-1-yl)methyl)-2-((4-methoxypyridin-2-yl)methyl)-5-(1-methyl-3-(trifluoromethyl)-1H-pyrazol-4-yl)-3,4-dihydroisoquinolin-1(2H)-one] | 113
24 | CCn1cc(-c2cc(Cn3ccsc3=N)cc3c2CCN([C@@H](C)c2cc(OC)ccn2)C3=O)c(C(F)(F)F)n1 [Example 104, (S)-5-(1-Ethyl-3-(trifluoromethyl)-1H-pyrazol-4-yl)-7-((2-iminothiazol-3(2H)-yl)methyl)-2-(1-(4-methoxypyridin-2-yl)ethyl)-3,4-dihydroisoquinolin-1(2H)-one] | < 50
25 | Cc1ccc2[nH]ncc2c1-c1cc(CN2CCc3c(cc(Cn4ccnc4C)cc3-c3cn(C)nc3C(F)(F)F)C2=O)cc(OC(F)(F)F)c1 [Example 220, 7-((2-Methyl-1H-imidazol-1-yl)methyl)-2-(3-(5-methyl-1H-indazol-4-yl)-5-(trifluoromethoxy)benzyl)-5-(1-methyl-3-(trifluoromethyl)-1H-pyrazol-4-yl)-3,4-dihydroisoquinolin-1(2H)-one] | 1940
26 | COc1cc(CN2CCc3c(cc(Cn4cc(C)nc4C)cc3-c3cn(C)nc3C(F)(F)F)C2=O)cc(OC)c1 [Example 17, 2-(3,5-Dimethoxybenzyl)-7-((2,4-dimethyl-1H-imidazol-1-yl)methyl)-5-(1-methyl-3-(trifluoromethyl)-1H-pyrazol-4-yl)-3,4-dihydroisoquinolin-1(2H)-one] | 360
